Test results taken from US20250127167A1, “ANTIMICROBIAL PEPTIDES” (priority 2021, published 2025).
Entries after “also recorded” stand apart in the source; their conditions may differ. Read-outs that look alike come from different tables or passages of the source. Where a SMILES comes first, the peptide text is derived from it. [ ]: non-standard residue; d: D form. Phe(4-F) = N[C@@H](Cc1ccc(F)cc1)C(=O)O; Dopa = N[C@@H](Cc1ccc(O)c(O)c1)C(=O)O

What was measured:
T4 bacteriophage [1] = assay: Antiviral activity for coatings against T4 bacteriophage (bacteriophage plaque assay); type: cell-based, Escherichia coli bacteriophage T4; conditions: for virus titer of bacteriophage T4 on dipeptide coatings: 10 mg/mL drop-casted three times, bare glass 29000±2000 PFU/mL; for virus titer of bacteriophage T4 on dipeptide coatings / viral titer of T4 bacteriophage / virus titer of T4 bacteriophage: 24 h; for reduction of the viral titer by dipeptide coatings: versus bare glass; for virus titer of T4 bacteriophage: 3-layer coating on glass, bare glass 13579±2839
Description: The antiviral activity performance was measured according to work by Kim et al. and Matsumoto et al. with some modification. The peptide coatings were prepared as described before. We used T4 bacteriophage as the virus when we measured the antiviral activity. Bacteriophage suspension was propagated on E. coli (ATCC 11303) according to ISO 18061, which was grown as the host strain. The mixture obtained by adding 100 μL of fresh T4 phage to an overnight culture of E. coli was incubated for 4 h in a 10 mL LB phage at 37° C. After multiplication, the virus was collected by centrifugation at 4000×g for 10 min at room temperature. The concentration of T4 bacteriophage was measured using the soft agar overlay (double-agar layer) plaque assay method. The supernatant containing the bacteriophage culture was filtrated through cellulose acetate filters (Millipore Acrodisc; the pore sizes were 0.45 μm and 0.22 μm) before use (the final concentration of bacteriophage was 10^9 PFU/mL).
Ten decimal serial dilutions of the virus suspension were prepared by LB phage. The aqueous suspensions for the E. coli and T4 bacteriophage inactivation experiments contained sample surfaces having dimensions of 1*1 cm and T4 phage at 1.0×10^6 plaque-forming units (PFU)/mL. As a positive control, we also added 16 μL 1.0×10^6 plaque-forming units (PFU)/mL bacteriophage T4 on bare glass and then treated the surface by a UV irradiation (long wave ultraviolet 365 nm) for 3 h. Next, the phages were incubated under humid conditions at room temperature (25° C.) in a dark room for 24 h. After incubation, the phages were harvested by shaking with 2 mL SCDLP broth for 15 min to stop the incubation. The T4 in SCDLP bacteriophage was diluted with LB phage 10-fold. Subsequently, samples and bacteria were mixed with 0.6% agarose. Then the mixture was spread out on 1.5% LB agar to form a double agar layer. The plate was incubated at 37° C. for 18 h to form the plaques. The antiviral activity was defined and calculated as eq 2 below: The initial virus titer (No) and the virus titer after incubation (N) were calculated by counting the plaque number. For each sample, 9 repeats were performed to assess the antiviral activity.
The antiviral activity performance was measured according to our previous work. Briefly, 10 decimal serial dilutions of the virus suspension were prepared by LB phage. The aqueous suspensions for the E. coli and T4 bacteriophage inactivation experiments contained sample surfaces with dimensions of 1*1 cm and T4 phage at 1.0×106 plaque-forming units (PFU)/mL. Next, the phages were incubated under humid conditions at room temperature (25° C.) in a dark room for 24 h. After incubation, the phages were harvested by shaking them with 2 mL SCDLP broth for 15 min to stop the incubation. The T4 in the SCDLP bacteriophage was diluted with LB phage 10-fold. Subsequently, samples and bacteria were mixed with 0.6% agarose. Then, the mixture was spread out on 1.5% LB agar to form a double agar layer. The plate was incubated at 37° C. for 18 h to form the plaques. The antiviral activity was defined and calculated as follows: The initial virus titer (NO) and the virus titer after incubation (N) were calculated by counting the plaque number. For each sample, 9 repeats were performed to assess the antiviral activity.

T4 bacteriophage [2] = system: T4 bacteriophage
Description: All the tripeptide powders were firstly dissolved into ethanol and diluted by TDW. The solutions were stirring for 3 h (150 rpm, room temperature) for complete self-assembly. The final concentration is 10 mg/mL. […] As a control, single amino acids (L-DOPA, L-Phenylalanine, and 4-Fluoro-L-phenylalanine) were also used to examine their antiviral activity. To further evaluate the antiviral activity for the peptide assemblies, the antiviral MIC for traditional Ag and Cu nanoparticles were also tested. The stock solutions were two-fold diluted using LB phage to obtain a series of peptide concentrations until the lowest concentration needed was achieved. Next, the 100 μL T4 bacteriophage (10^5 PFU/mL) and 100 μL diluted peptide solutions were transferred into 800 μL LB phage and then the samples were shaken at 150 rpm at room temperature. After 24 h incubation, the samples were centrifuged at 14000 g for 10 min to precipitate the peptide particles. Supernatants were collected and then 10-fold diluted once. Then, the 20 μL supernatants were mixed with 25 μL bacteria (E. coli. ATCC11303) in 1 mL warm 0.6% agarose. Then the mixture was spread out on 1.5% LB agar to form a double agar layer. The plate was incubated at 37° C. for 18 h to form the plaques. The lowest concentration of peptides that prevented virus growth is defined as the antiviral minimum inhibitory concentration (MIC).
A series of two-fold diluted peptide solutions (1000, 500, 250, 125, 62.5, 31.25, 15.625, and 7.8125 µg/mL) was prepared to measure the antiviral MIC. Next, 100 μL T4 bacteriophage (10^5 PFU/mL) and 100 μL diluted peptide solutions were transferred into 800 μL LB phage; then, the samples were shaken at 150 rpm at room temperature. After 24 h incubation, the samples were centrifuged at 14000×g for 10 min to precipitate the peptide particles. Supernatants were collected and then 10-fold diluted once. Next, the 20 μL supernatants were mixed with 25 μL bacteria (E. coli. ATCC11303) in 1 mL of warm 0.6% agarose. Then, the mixture was spread out on 1.5% LB agar to form a double agar layer. The plate was incubated at 37° C. for 18 h to form plaques. The lowest concentration of peptides that prevented virus growth is defined as the antiviral minimum inhibitory concentration (MIC). L-DOPA, L-phenylalanine, L-Phe(4F), Phe(4F)-Phe(4F), and diphenylalanine were used as controls.

[3] = Stability of peptide coatings (XPS after immersing or washing); type: physicochemical; conditions: 3-layer coating
Description: X-ray photoelectron spectroscopy (XPS) analyses were performed by using an AXIS Ultra X-ray photoelectron spectrometer (Kratos Analytical, Ltd., Manchester, UK). The sample's take-off angle was 90°. The vacuum pressure in the analyzing chamber was maintained at 2×10^−9 Torr. High-resolution XPS spectra were collected for F is, O is, C is, and N is peaks with 20 eV pass energy and 0.1 eV step size. Data analyses were carried out using Kratos Vision data reducing processing software (Kratos Analytical, Ltd.) and Casa XPS (Casa Software, Ltd.).
(§1) To examine the coating stabilities, peptide coatings were immersed into TDW for 5 min or washed with 2 mL TDW three times and then dried at room temperature. X-ray photoelectron spectroscopy (XPS) analyses were performed for the immersed and washed coatings. Moreover, peptide coatings were wiped with a finger at a load of 1 g and then water contact angle measurements were performed using the same method as described in the Contact angle measurements section.

Canine coronavirus (CCV) = type: cell-based; conditions: for log (TCID50/mL) of CCV: 3-layer coating, 3 h incubation, uncoated glass 4.77±0.12; for effect on CCV (in words): 3-layer coatings / controls
[4] = Water contact angle measurements of coated glass; type: physicochemical; conditions: for water contact angle after wiping: 3-layer coating, wiped at a load of 1 g
Description: Contact angle measurements were examined by using a Theta Lite optical tensiometer (Attension, Finland). Each experimental measurement consisted of three repeats.
as §1

fruit and plant viruses = assay: Antiviral activity against fruit viruses
Source text: The potential antiviral activity of DOPA-Phe(Br)—OH against fruit viruses and other microbial sources was also investigated.

[5] = Table 1, tripeptide assemblies, single amino acids and metal nanoparticles, 24 h incubation

NC(=O)[C@H](Cc1ccc(F)cc1)NC(=O)[C@@H](N)Cc1ccc(O)c(O)c1 [DOPA-Phe(4F)-NH2] (H-[Dopa]-[Phe(4-F)]-NH2)
virus titer of bacteriophage T4 on dipeptide coatings (T4 bacteriophage [1]): no viruses were detected
reduction of the viral titer by dipeptide coatings (T4 bacteriophage [1]): ~4 logs
antiviral activity against T4 bacteriophage (in words) (T4 bacteriophage [2]; in solution): exhibited antiviral activity
Antiviral MIC (T4 bacteriophage [2]; in solution, T4 bacteriophage): 62.5 µg/mL

COC(=O)[C@H](Cc1ccc(F)cc1)NC(=O)[C@H](Cc1ccc(F)cc1)NC(=O)[C@@H](N)Cc1ccc(O)c(O)c1 [DOPA-Phe(4F)-Phe(4F)-OMe] (H-[Dopa]-[Phe(4-F)]-[Phe(4-F)]-OMe; N-terminus assumed)
XPS signals after immersing in TDW for 5 min or washing three times [3]: did not decrease
reduction of viral titer compared with bare glass (T4 bacteriophage [1]; 1 layer coating): 79%
reduction rate (log (N/No)) of virus titers (T4 bacteriophage [1]; 1 layer coating): −0.7
viral titer of T4 bacteriophage (T4 bacteriophage [1]; 1 layer coating on glass): 2610±369 PFU/mL
reduction of viral titer compared with bare glass (T4 bacteriophage [1]; 2 layers coating): 91%
reduction rate (log (N/No)) of virus titers (T4 bacteriophage [1]; 2 layers coating): −1.1
viral titer of T4 bacteriophage (T4 bacteriophage [1]; 2 layers coating on glass): 1111±201 PFU/mL
reduction of virus titers compared to the glass surfaces (T4 bacteriophage [1]; 3-layer coating): 3 log
reduction of virus titers compared to the stock solution (T4 bacteriophage [1]; 3-layer coating): 6 log
virus titer of T4 bacteriophage (T4 bacteriophage [1]): 3±6 PFU/mL
reduction of viral titer compared with bare glass (T4 bacteriophage [1]; 3 layer coating): 99.9%
reduction rate (log (N/No)) of virus titers (T4 bacteriophage [1]; 3 layers coating): −3.7
log (TCID50/mL) of CCV (Canine coronavirus (CCV)): below the detection limit
water contact angle ([4]; 1 layer on glass, bare glass 12±2°): 23±2 °
water contact angle ([4]; 2 layers on glass): 34±2 °
water contact angle after wiping [4]: 33±1 °
water contact angle ([4]; 3 layers on glass): 38±4 °
Antiviral MIC (T4 bacteriophage [2]; [5]): 31 µg/mL

NC(=O)[C@H](Cc1ccccc1)NC(=O)[C@@H](N)Cc1ccc(O)c(O)c1 [DOPA-Phe-NH2] (H-[Dopa]-Phe-NH2; N-terminus assumed)
virus titer of bacteriophage T4 on dipeptide coatings (T4 bacteriophage [1]): no viruses were detected
reduction of the viral titer by dipeptide coatings (T4 bacteriophage [1]): ~4 logs
Antiviral MIC (T4 bacteriophage [2]; 24 h): 125.00 µg/mL
antiviral activity against T4 bacteriophage (in words) (T4 bacteriophage [2]; in solution): exhibited antiviral activity
Antiviral MIC (T4 bacteriophage [2]; in solution, T4 bacteriophage): 125 µg/mL

COC(=O)[C@H](Cc1ccccc1)NC(=O)[C@H](Cc1ccccc1)NC(=O)[C@@H](N)Cc1ccc(O)c(O)c1 [DOPA-Phe-Phe-OMe] (H-[Dopa]-Phe-Phe-OMe; N-terminus assumed)
XPS signals after immersing in TDW for 5 min or washing three times [3]: did not change appreciably
reduction of virus titers compared to the glass surfaces (T4 bacteriophage [1]; 3-layer coating): 0.2 log
virus titer of T4 bacteriophage (T4 bacteriophage [1]): 8029±205 PFU/mL
reduction rate (log (N/No)) of virus titers (T4 bacteriophage [1]; 3 layers coating): −0.2
log (TCID50/mL) of CCV (Canine coronavirus (CCV)): below the detection limit
water contact angle after wiping [4]: 25±2 °
water contact angle ([4]; 3 layers on glass): 29±1 °
Antiviral MIC (T4 bacteriophage [2]; [5]): 62 µg/mL

N[C@@H](Cc1ccc(O)c(O)c1)C(=O)O [L-DOPA, 3,4-dihydroxy-L-phenylalanine]
antiviral activity of drop-casted controls against T4 bacteriophage (in words) (T4 bacteriophage [1]; drop-casted three times / deposited on glass, compared to a glass surface): did not decrease the viral titers
log (TCID50/mL) of CCV (Canine coronavirus (CCV)): 4.37±0.31 log (TCID50/mL)
effect on CCV (in words) (Canine coronavirus (CCV)): do not appreciably affect the viability of CCV
effect on CCV (in words) (Canine coronavirus (CCV); listed as DOPA): did not show any antiviral activity
antiviral activity against T4 bacteriophage (in words) (T4 bacteriophage [2]; in solution, listed as DOPA): did not show any antiviral activity

N[C@@H](Cc1ccc(F)cc1)C(=O)O [L-Phe(4F), 4-Fluoro-L-phenylalanine]
antiviral activity against T4 bacteriophage (in words) (T4 bacteriophage [2]; in solution): did not decrease the viral titer
antiviral activity against T4 bacteriophage (in words) (T4 bacteriophage [2]; in solution, listed as 4-Fluoro-L-phenylalanine): no antiviral activity

N[C@@H](Cc1ccccc1)C(=O)O [L-Phe, L-phenylalanine]
effect on CCV (in words) (Canine coronavirus (CCV)): did not show any antiviral activity
antiviral activity against T4 bacteriophage (in words) (T4 bacteriophage [2]; in solution, listed as L-Phenylalanine): no antiviral activity

DOPA-Phe(Br)—NH2
eradication of fruit and plant viruses (fruit and plant viruses): capable of eradicating fruit and plant viruses

DOPA-Phe(Br)—OH
eradication of fruit and plant viruses (fruit and plant viruses): capable of eradicating fruit and plant viruses

H-Phe-Phe-OH [Diphenylalanine]
antiviral activity of drop-casted controls against T4 bacteriophage (in words) (T4 bacteriophage [1]): did not decrease the viral titers; also recorded: did not exhibit antiviral activity
log (TCID50/mL) of CCV (Canine coronavirus (CCV)): 4.67±0.42 log (TCID50/mL)
effect on CCV (in words) (Canine coronavirus (CCV)): do not appreciably affect the viability of CCV; also recorded: did not show any antiviral activity
antiviral activity against T4 bacteriophage (in words) (T4 bacteriophage [2]; in solution, listed as Phe-Phe): did not decrease the viral titer
antiviral activity against T4 bacteriophage (in words) (T4 bacteriophage [2]; in solution, listed as diphenylalanine): did not show any antiviral activity

Phe(4F)-Phe(4F)—OMe [Phe(4F)-Phe(4F)-Ome]
antiviral activity against T4 bacteriophage (in words) (T4 bacteriophage [2]; in solution): did not decrease the viral titer
